Measured values: PMC5697638, “Identification of a Potent Phosphoinositide 3‐Kinase Pan Inhibitor Displaying a Strategic Carboxylic Acid Group and Development of Its Prodrugs” (Chemmedchem, 2017)

How the values were obtained:
PI3Ks = test: PI3K inhibitory activity of copper salts; type: biochemical; settings: up to 10 μM
Description: With this procedure in hand, we proceeded with our combinatorial strategy. The azides were selected to introduce both electron‐donating and electron‐withdrawing groups, hydrogen‐bond donors and acceptors, and ionizable functions. They were already present in our database or prepared according to standard procedures. […] Then, the 1,2,3‐triazoles were evaluated for their ability to inhibit PI3K isoforms of class I at a fixed concentration of 1 μM, as shown in Table 1. The synthesized 1,2,3‐triazoles along with their ability to inhibit PI3K isoforms at 1 μM concentration are reported. Possibly, a minute concentration of copper salts might have precipitated with the products and might have been retained in the purified compounds, and so, we also evaluated the PI3K inhibitory activity of these salts.

[1] = system: PI3Ks, all of the isoforms; set-up: method as in PMID 8106507; settings: read-out: IC50 against all of the isoforms; cited from earlier work

SMILES	inhibition of PI3Ks (PI3Ks)	IC50 [1]
[Cu+].[I-] [copper(I) iodide]	Neither copper(II) acetate nor copper(I) iodide displayed significant inhibition of PI3Ks up to 10 μM	
CC(=O)[O-].CC(=O)[O-].[Cu+2] [copper(II) acetate]	Neither copper(II) acetate nor copper(I) iodide displayed significant inhibition of PI3Ks up to 10 μM	
O=c1cc(N2CCOCC2)oc2c(-c3ccccc3)cccc12 [LY294002]		~500 nM
